Among the data in PubChem BioAssay AID330 (DTP/NCI, 2004) are T/C values, retold here.

Structures are written as SMILES. Several values for one entry are separate records, joined by “and”; a condition that tells them apart may be missing. Identical values can stand only once. Inconclusive results and toxic doses are left out.

This test concerns P388 leukemia ip, CD2F1 mice, survival T/C. Put plainly: NCI In Vivo Anticancer Drug Screen. Data for tumor model P388 Leukemia (intraperitoneal) in CD2F1 (CDF1) mice. Conditions: endpoint: median survival time, higher = longer survival. The method in brief:
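Mice carrying the transplanted tumor received test compound or vehicle. Survival was recorded in each group, and the value is the treated-group measurement divided by that of the vehicle-treated control group.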

Where [1] appears, read: dose: 12.5 mg/kg/injection, schedule: Q01DX005 (ip), vehicle: Klucel (hydroxypropylcellulose) (HPC).
Setting [2] is: dose: 25.0 mg/kg/injection, schedule: Q01DX005 (ip), vehicle: Klucel (hydroxypropylcellulose) (HPC).
The mark [3] stands for this setting: dose: 50.0 mg/kg/injection, schedule: Q01DX005 (ip), vehicle: Klucel (hydroxypropylcellulose) (HPC).
[4] abbreviates: dose: 100.0 mg/kg/injection, schedule: Q01DX005 (ip), vehicle: Klucel (hydroxypropylcellulose) (HPC).
[5] abbreviates: dose: 50.0 mg/kg/injection, schedule: Q01DX005 (ip), vehicle: saline with Tween-80.
[6] abbreviates: dose: 100.0 mg/kg/injection, schedule: Q01DX005 (ip), vehicle: saline with Tween-80.
Where [7] appears, read: dose: 200.0 mg/kg/injection, schedule: Q01DX005 (ip), vehicle: saline with Tween-80.
Where [8] appears, read: dose: 200.0 mg/kg/injection, schedule: Q01DX005 (ip), vehicle: Klucel (hydroxypropylcellulose) (HPC).
The mark [9] stands for this setting: dose: 50.0 mg/kg/injection, schedule: Q01DX009 (ip), vehicle: saline with Tween-80.

Turning to `COc1ccc(-c2cc(=O)c3cccc(CC(=O)O)c3o2)cc1`, the T/C is 105 % of control under setting [1]; 104 % of control under setting [2]; 114 % of control and 98 % of control under setting [3]; 170 % of control under setting [4].
In the case of `CC(=O)C1C(=O)C(=O)N(c2ccc(O)c(C(=O)O)c2)C1=O` (stereo not given), the T/C is 100 % of control (dose: 100.0 mg/kg/injection, schedule: Q04DX002 (ip), vehicle: saline with Tween-80); 94 % of control (dose: 200.0 mg/kg/injection, schedule: Q04DX002 (ip), vehicle: saline with Tween-80); 93 % of control (dose: 400.0 mg/kg/injection, schedule: Q04DX002 (ip), vehicle: saline with Tween-80).
`CC1=CC(O)C(O)C2(C)C1CC1OC(=O)C(OC(=O)CC(C)C)C3C(C)C(O)C4(O)OCC13C42` (stereo not given) (tested in a mixture with another compound): the T/C (dose: 125.0 micrograms/kg/injection, schedule: Q01DX009 (ip), vehicle: other) was 104 % of control; the T/C (dose: 250.0 micrograms/kg/injection, schedule: Q01DX009 (ip), vehicle: other) was 102 % of control; the T/C (dose: 500.0 micrograms/kg/injection, schedule: Q01DX009 (ip), vehicle: other) is 103 % of control; the T/C (dose: 1000.0 micrograms/kg/injection, schedule: Q01DX009 (ip), vehicle: other) is 108 % of control.
Regarding `CC(C)C(Nc1ncnc2nc[nH]c12)C(=O)O` (stereo not given), the T/C is, setting by setting: under setting [5], 102 % of control; under setting [6], 102 % of control; under setting [7], 103 % of control.
With `C#CC(C)(C)NC(=O)c1cccnc1Oc1ccccc1`, the T/C is, setting by setting: under setting [5], 99 % of control; under setting [6], 97 % of control; under setting [7], 99 % of control.
In the case of `CONC(=O)N/N=C/c1c(CO)cnc(C)c1O`, the T/C reads like this: under setting [1], 104 % of control; under setting [2], 100 % of control; under setting [3], 94 % of control.
For `CN(CNC(N)=O)N=O`, the T/C (dose: 50.0 mg/kg/injection, schedule: Q01DX009 (ip), vehicle: water) was 99 % of control; the T/C (dose: 100.0 mg/kg/injection, schedule: Q01DX009 (ip), vehicle: water) was 108 % of control; the T/C (dose: 200.0 mg/kg/injection, schedule: Q01DX009 (ip), vehicle: water) was 107 % of control.
Turning to `Nc1cc(Cl)cc2c1-c1ccc(Cl)cc1C2=O`, the T/C under setting [2] is 96 % of control, the T/C under setting [3] is 91 % of control, the T/C under setting [4] is 90 % of control and the T/C under setting [8] was 89 % of control.
Regarding `Nc1nc(-c2ccccn2)cc2cc(Cl)ccc12`, the T/C was 99 % of control (dose: 60.0 mg/kg/injection, schedule: Q01DX005 (ip), vehicle: saline with Tween-80) and 115 % of control (dose: 120.0 mg/kg/injection, schedule: Q01DX005 (ip), vehicle: saline with Tween-80).
With `CC1CCC(C(C)C)C2(C1)OC(CCl)CS2` (stereo not given), the T/C is 106 % of control (dose: 12.5 mg/kg/injection, schedule: Q01DX009 (ip), vehicle: saline with Tween-80); 114 % of control (dose: 25.0 mg/kg/injection, schedule: Q01DX009 (ip), vehicle: saline with Tween-80); 114 % of control and 124 % of control under setting [9].
Take `Cc1ccnc(NCCCCCCNc2nccc(C)n2)n1`: the T/C by setting is: (dose: 100.0 mg/kg/injection, schedule: Q04DX003 (ip), vehicle: saline with Tween-80) 87 % of control; (dose: 200.0 mg/kg/injection, schedule: Q04DX003 (ip), vehicle: saline with Tween-80) 98 % of control; (dose: 400.0 mg/kg/injection, schedule: Q04DX003 (ip), vehicle: saline with Tween-80) 91 % of control.
Consider `COc1ccc(Cl)cc1C`, for which the T/C reads like this: (dose: 12.5 mg/kg/injection, schedule: Q01DX009 (ip), vehicle: distilled water + Tween-80) 99 % of control; (dose: 25.0 mg/kg/injection, schedule: Q01DX009 (ip), vehicle: distilled water + Tween-80) 97 % of control; (dose: 50.0 mg/kg/injection, schedule: Q01DX009 (ip), vehicle: distilled water + Tween-80) 98 % of control; (dose: 100.0 mg/kg/injection, schedule: Q01DX009 (ip), vehicle: distilled water + Tween-80) 98 % of control; (dose: 200.0 mg/kg/injection, schedule: Q01DX009 (ip), vehicle: distilled water + Tween-80) 108 % of control; (dose: 400.0 mg/kg/injection, schedule: Q01DX009 (ip), vehicle: distilled water + Tween-80) 116 % of control.
Consider `N#CCCSc1nnc(N)s1`, for which the T/C is 108 % of control (dose: 50.0 mg/kg/injection, schedule: Q01DX009 (ip), vehicle: Klucel (hydroxypropylcellulose) (HPC)); 103 % of control (dose: 100.0 mg/kg/injection, schedule: Q01DX009 (ip), vehicle: Klucel (hydroxypropylcellulose) (HPC)); 104 % of control (dose: 200.0 mg/kg/injection, schedule: Q01DX009 (ip), vehicle: Klucel (hydroxypropylcellulose) (HPC)); 100 % of control (dose: 400.0 mg/kg/injection, schedule: Q01DX009 (ip), vehicle: Klucel (hydroxypropylcellulose) (HPC)).
Take `CCC[CH2][Sn]([CH2]CCC)([O]c1ccccc1C=Nc1ccc(F)cc1)[O]c1ccccc1C=Nc1ccc(F)cc1`: the T/C is, setting by setting: (dose: 6.25 mg/kg/injection, schedule: Q01DX005 (ip), vehicle: saline with Tween-80) 116 % of control; (dose: 12.5 mg/kg/injection, schedule: Q01DX005 (ip), vehicle: saline with Tween-80) 122 % of control.
`Nc1ccc(SCCOC(c2ccccc2)(c2ccccc2)c2ccccc2)cc1`: the T/C by setting is: (dose: 100.0 mg/kg/injection, schedule: Q04DX003 (ip), vehicle: saline) 101 % of control; (dose: 200.0 mg/kg/injection, schedule: Q04DX003 (ip), vehicle: saline) 99 % of control; (dose: 400.0 mg/kg/injection, schedule: Q04DX003 (ip), vehicle: saline) 102 % of control.
Take `CC1N=C(SCc2c(F)cccc2Cl)N2C(C)N=C(SCc3c(F)cccc3Cl)N12` (stereo not given): the T/C runs as follows: under setting [5], 96 % of control; under setting [6], 96 % of control; under setting [7], 93 % of control.
Take `COc1cc(C(C)c2cc3c(cc2OC)OCO3)ccc1OCc1ccccc1` (stereo not given): the T/C is 103 % of control (dose: 25.0 mg/kg/injection, schedule: Q01DX005 (ip), vehicle: distilled water + Tween-80); 99 % of control and 87 % of control (dose: 50.0 mg/kg/injection, schedule: Q01DX005 (ip), vehicle: distilled water + Tween-80); 100 % of control (dose: 100.0 mg/kg/injection, schedule: Q01DX005 (ip), vehicle: distilled water + Tween-80); 94 % of control (dose: 200.0 mg/kg/injection, schedule: Q01DX005 (ip), vehicle: distilled water + Tween-80).
For `CC1=CC(=O)[C@@H](O)[C@]2(C)[C@H]3[C@@H](O)[C@H](O)[C@@]4(C)OC[C@@]35[C@@H](C[C@@H]12)OC(=O)C[C@]54O`, the T/C was 115 % of control (dose: 1.0 mg/kg/injection, schedule: Q01DX009 (ip), vehicle: saline) and 153 % of control (dose: 8.0 mg/kg/injection, schedule: Q01DX009 (ip), vehicle: saline).
For the molecule `CC(C)=CC1OC2CC3(C)C4=C(CCC3(C)C2C(C)C1O)C1(C)CCC(O)C(C)(C)C1CC4` (stereo not given), the T/C (dose: 15.0 mg/kg/injection, schedule: Q01DX009 (ip), vehicle: saline) was 98 % of control; the T/C (dose: 30.0 mg/kg/injection, schedule: Q01DX009 (ip), vehicle: saline) is 102 % of control; the T/C (dose: 60.0 mg/kg/injection, schedule: Q01DX009 (ip), vehicle: saline) was 100 % of control.
As for `OCC1OC(OC2C(CO)OC(Sc3ccccc3)C(O)C2O)C(O)C(O)C1O` (stereo not given), the T/C by setting is: under setting [3], 101 % of control; under setting [4], 105 % of control; under setting [8], 105 % of control.
For the molecule `CC(C)NCC(O)c1ccc(O)c(NC=O)c1` (stereo not given), the T/C by setting is: under setting [9], 102 % of control; (dose: 100.0 mg/kg/injection, schedule: Q01DX009 (ip), vehicle: saline with Tween-80) 104 % of control; (dose: 200.0 mg/kg/injection, schedule: Q01DX009 (ip), vehicle: saline with Tween-80) 100 % of control.
Regarding `NC(CS(=O)(=O)O)C(=O)O` (stereo not given), the T/C is 105 % of control (dose: 100.0 mg/kg/injection, schedule: Q04DX002 (ip), vehicle: saline) and 96 % of control (dose: 200.0 mg/kg/injection, schedule: Q04DX002 (ip), vehicle: saline).
